Measurements reported in patent publication US10212936B2, “Molecules having pesticidal utility, and intermediates, compositions, and processes, related thereto” (priority 2014, dated 2019).

How the values were obtained:
Assay type in all cases: in vivo
[1] = tested on: Cabbage Looper (Trichoplusia ni, TRIPNI); assay: Bioassay on Cabbage Looper (CL), 128-well diet tray assay; details: 168 h, 50 μg/cm^2 on artificial diet, second instar larvae, five to seven days, 25° C., read-out: CL % Control (or Mortality) rating
Experimental: (§1) Example A: Bioassays on Beet Armyworm (Spodoptera exigua, LAPHEG) (“BAW”), Corn Earworm (Helicoverpa zea, HELIZE) (“CEW”), and Cabbage Looper (Trichoplusia ni, TRIPNI) (“CL”)
(§2) Certain molecules disclosed in this document were tested against BAW, CEW, and CL using procedures described in the following examples. In the reporting of the results, the “BAW, CEW, & CL Rating Table” was used (See Table Section).
Bioassays on CL were conducted using a 128-well diet tray assay. one to five second instar CL larvae were placed in each well (3 mL) of the diet tray that had been previously filled with 1 mL of artificial diet to which 50 μg/cm^2 of the test molecule (dissolved in 50 μL of 90:10 acetone-water mixture) had been applied (to each of eight wells) and then allowed to dry. Trays were covered with a clear self-adhesive cover and held at 25° C., 14:10 light-dark for five to seven days. Percent mortality was recorded for the larvae in each well; activity in the eight wells was then averaged. The results are indicated in the table entitled “Table ABC: Biological Results” (See Table Section).

[2] = tested on: Corn Earworm (Helicoverpa zea, HELIZE); assay: Bioassay on Corn Earworm (CEW), 128-well diet tray assay; details: 168 h, 50 μg/cm^2 on artificial diet, second instar larvae, five to seven days, 25° C., read-out: CEW % Control (or Mortality) rating
Experimental: as §1, §2
Bioassays on CEW were conducted using a 128-well diet tray assay. one to five second instar CEW larvae were placed in each well (3 mL) of the diet tray that had been previously filled with 1 mL of artificial diet to which 50 μg/cm^2 of the test molecule (dissolved in 50 μL of 90:10 acetone-water mixture) had been applied (to each of eight wells) and then allowed to dry. Trays were covered with a clear self-adhesive cover, and held at 25° C., 14:10 light-dark for five to seven days. Percent mortality was recorded for the larvae in each well; activity in the eight wells was then averaged. The results are indicated in the table entitled “Table ABC: Biological Results” (See Table Section).

[3] = tested on: Beet Armyworm (Spodoptera exigua, LAPHEG); assay: Bioassay on Beet Armyworm (BAW), 128-well diet tray assay; details: 168 h, 50 μg/cm^2 on artificial diet, second instar larvae, five to seven days, 25° C., read-out: BAW % Control (or Mortality) rating
Experimental: as §1, §2
Bioassays on BAW were conducted using a 128-well diet tray assay. one to five second instar BAW larvae were placed in each well (3 mL) of the diet tray that had been previously filled with 1 mL of artificial diet to which 50 μg/cm^2 of the test molecule (dissolved in 50 μL of 90:10 acetone-water mixture) had been applied (to each of eight wells) and then allowed to dry. Trays were covered with a clear self-adhesive cover and held at 25° C., 14:10 light-dark for five to seven days. Percent mortality was recorded for the larvae in each well; activity in the eight wells was then averaged. The results are indicated in the table entitled “Table ABC: Biological Results” (See Table Section).

[4] = tested on: Yellow Fever Mosquito (Aedes aegypti, AEDSAE); assay: Bioassay on Yellow Fever Mosquito (YFM) larvae, 96-well plate; details: about 1 day-old larvae, 4000 ppm DMSO master plate diluted, graded after 3 days
Experimental: Example C: Bioassays on Yellow Fever Mosquito (Aedes aegypti, AEDSAE) (“YFM”)
Certain molecules disclosed in this document were tested against YFM using procedures described in the following paragraph. In the reporting of the results, the “YFM Rating Table” was used (See Table Section).
Master plates containing 400 μg of a molecule dissolved in 100 μL of dimethyl sulfoxide (DMSO) (equivalent to a 4000 ppm solution) are used. A master plate of assembled molecules contains 15 μL per well. To this plate, 135 μL of a 90:10 water:acetone mixture is added to each well. A robot (Biomek® NXP Laboratory Automation Workstation) is programmed to dispense 15 μL aspirations from the master plate into an empty 96-well shallow plate (“daughter” plate). There are 6 reps (“daughter” plates) created per master. The created daughter plates are then immediately infested with YFM larvae.
The day before plates are to be treated, mosquito eggs are placed in Millipore water containing liver powder to begin hatching (4 g. into 400 mL). After the daughter plates are created using the robot, they are infested with 220 μL of the liver powder/larval mosquito mixture (about 1 day-old larvae). After plates are infested with mosquito larvae, a non-evaporative lid is used to cover the plate to reduce drying. Plates are held at room temperature for 3 days prior to grading. After 3 days, each well is observed and scored based on mortality. The results are indicated in the table entitled “Table ABC: Biological Results” (See Table Section).

Structure (SMILES): O=C(Nc1ccc(-c2ncn(-c3ccc(OC(F)(F)F)cc3)n2)cc1)Nc1nccn1-c1ccccn1 [F31, 1-(1-(Pyridin-2-yl)-1H-imidazol-2-yl)-3-(4-(1-(4-(trifluoromethoxy)phenyl)-1H-1,2,4-triazol-3-yl)phenyl)urea]
- mortality at 50 µg/cm2 [1]: 50 to 100%
- mortality at 50 µg/cm2 [2]: 50 to 100%
- mortality at 50 µg/cm2 [3]: 50 to 100%

Structure (SMILES): COc1ccc(-n2ccnc2NC(=O)Nc2ccc(-c3ncn(-c4ccc(OC(F)(F)F)cc4)n3)cc2)cc1 [F30, 1-(1-(4-Methoxyphenyl)-1H-imidazol-2-yl)-3-(4-(1-(4-(trifluoromethoxy)phenyl)-1H-1,2,4-triazol-3-yl)phenyl)urea]
- mortality at 50 µg/cm2 [1]: 50 to 100%
- mortality at 50 µg/cm2 [2]: 50 to 100%
- mortality at 50 µg/cm2 [3]: 50 to 100%

Structure (SMILES): CC(C)c1cccc(-n2ccnc2NC(=O)Nc2ccc(-c3ncn(-c4ccc(OC(F)(F)F)cc4)n3)cc2)c1 [F25, 1-(1-(3-Isopropylphenyl)-1H-imidazol-2-yl)-3-(4-(1-(4-(trifluoromethoxy)phenyl)-1H-1,2,4-triazol-3-yl)phenyl)urea]
- mortality at 50 µg/cm2 [1]: 50 to 100%
- mortality at 50 µg/cm2 [2]: 50 to 100%
- mortality at 50 µg/cm2 [3]: 50 to 100%

Structure (SMILES): O=C(Nc1ccc(-c2ncn(-c3ccc(OC(F)(F)F)cc3)n2)cc1)Nc1nccn1-c1ccccc1 [F20, 1-(1-Phenyl-1H-imidazol-2-yl)-3-(4-(1-(4-(trifluoromethoxy)phenyl)-1H-1,2,4-triazol-3-yl)phenyl)urea]
- mortality at 50 µg/cm2 [1]: 50 to 100%
- mortality at 50 µg/cm2 [2]: 50 to 100%
- mortality at 50 µg/cm2 [3]: 50 to 100%

Structure (SMILES): CCc1cccc(-n2ccnc2NC(=O)Nc2ccc(-c3ncn(-c4ccc(OC(F)(F)F)cc4)n3)cc2)c1 [F26, 1-(1-(3-Ethylphenyl)-1H-imidazol-2-yl)-3-(4-(1-(4-(trifluoromethoxy)phenyl)-1H-1,2,4-triazol-3-yl)phenyl)urea]
- mortality at 50 µg/cm2 [1]: 50 to 100%
- mortality at 50 µg/cm2 [2]: 50 to 100%
- mortality at 50 µg/cm2 [3]: 50 to 100%

Structure (SMILES): Cc1ccccc1-n1ccnc1NC(=O)Nc1ccc(-c2ncn(-c3ccc(OC(F)(F)F)cc3)n2)cc1 [F21, 1-(1-(o-Tolyl)-1H-imidazol-2-yl)-3-(4-(1-(4-(trifluoromethoxy)phenyl)-1H-1,2,4-triazol-3-yl)phenyl)urea]
- mortality at 50 µg/cm2 [1]: 50 to 100%
- mortality at 50 µg/cm2 [2]: 50 to 100%
- mortality at 50 µg/cm2 [3]: 50 to 100%

Structure (SMILES): COc1cccc(-n2ccnc2NC(=O)Nc2ccc(-c3ncn(-c4ccc(OC(F)(F)F)cc4)n3)cc2)c1 [F23, 1-(1-(3-Methoxyphenyl)-1H-imidazol-2-yl)-3-(4-(1-(4-(trifluoromethoxy)phenyl)-1H-1,2,4-triazol-3-yl)phenyl)urea]
- mortality at 50 µg/cm2 [1]: 50 to 100%
- mortality at 50 µg/cm2 [2]: 50 to 100%
- mortality at 50 µg/cm2 [3]: 50 to 100%

Structure (SMILES): O=C(Nc1ccc(-c2ncn(-c3ccc(OC(F)(F)F)cc3)n2)cc1)Nc1nccn1-c1ccncc1 [F33, 1-(1-(Pyridin-4-yl)-1H-imidazol-2-yl)-3-(4-(1-(4-(trifluoromethoxy)phenyl)-1H-1,2,4-triazol-3-yl)phenyl)urea]
- mortality at 50 µg/cm2 [1]: 50 to 100%
- mortality at 50 µg/cm2 [2]: 50 to 100%
- mortality at 50 µg/cm2 [3]: 50 to 100%

Structure (SMILES): Cc1ccc(C)c(-c2ncsc2NC(=O)Nc2ccc(-c3ncn(-c4ccc(OC(F)(F)F)cc4)n3)cc2)c1 [F47, 1-(4-(2,5-Dimethylphenyl)thiazol-5-yl)-3-(4-(1-(4-(trifluoromethoxy)phenyl)-1H-1,2,4-triazol-3-yl)phenyl)urea]
- mortality at 50 µg/cm2 [1]: 50 to 100%
- mortality at 50 µg/cm2 [3]: 50 to 100%
- YFM % Control (or Mortality) rating [4]: A (80-100)

Structure (SMILES): Cc1ccc(-n2ccnc2NC(=O)Nc2ccc(-c3ncn(-c4ccc(OC(F)(F)F)cc4)n3)cc2)cc1 [F29, 1-(1-(p-Tolyl)-1H-imidazol-2-yl)-3-(4-(1-(4-(trifluoromethoxy)phenyl)-1H-1,2,4-triazol-3-yl)phenyl)urea]
- mortality at 50 µg/cm2 [1]: 50 to 100%
- mortality at 50 µg/cm2 [2]: 50 to 100%
- mortality at 50 µg/cm2 [3]: 50 to 100%

Structure (SMILES): CC(C)c1ccccc1-n1ccnc1NC(=O)Nc1ccc(-c2ncn(-c3ccc(OC(F)(F)F)cc3)n2)cc1 [F22, 1-(1-(2-Isopropylphenyl)-1H-imidazol-2-yl)-3-(4-(1-(4-(trifluoromethoxy)phenyl)-1H-1,2,4-triazol-3-yl)phenyl)urea]
- mortality at 50 µg/cm2 [1]: 50 to 100%
- mortality at 50 µg/cm2 [2]: 50 to 100%
- mortality at 50 µg/cm2 [3]: 50 to 100%

Structure (SMILES): O=C(NCCc1ccc(-c2ncn(-c3ccc(OC(F)(F)F)cc3)n2)cc1)Nc1ncc(-c2ccccc2)o1 [F52, 1-(5-phenyloxazol-2-yl)-3-(4-(1-(4-(trifluoromethoxy)phenyl)-1H-1,2,4-triazol-3-yl)phenethyl)urea]
- mortality at 50 µg/cm2 [1]: 50 to 100%
- mortality at 50 µg/cm2 [2]: 0%
- mortality at 50 µg/cm2 [3]: 50 to 100%

Structure (SMILES): CCOC(=O)c1c(C)csc1NC(=O)Nc1ccc(-c2ncn(-c3ccc(OC(F)(F)F)cc3)n2)cc1 [F1, ethyl 4-methyl-2-(3-(4-(1-(4-(trifluoromethoxy)phenyl)-1H-1,2,4-triazol-3-yl)phenyl)ureido)thiophene-3-carboxylate]
- mortality at 50 µg/cm2 [1]: 0%
- mortality at 50 µg/cm2 [3]: 0%
- YFM % Control (or Mortality) rating [4]: D (No activity noticed in this bioassay)

Structure (SMILES): O=C(Nc1ccc(-c2ncn(-c3ccc(OC(F)(F)F)cc3)n2)cc1)Nc1nccn1-c1cccc(Cl)c1 [F27, 1-(1-(3-Chlorophenyl)-1H-imidazol-2-yl)-3-(4-(1-(4-(trifluoromethoxy)phenyl)-1H-1,2,4-triazol-3-yl)phenyl)urea]
- mortality at 50 µg/cm2 [1]: 50 to 100%
- mortality at 50 µg/cm2 [2]: 50 to 100%
- mortality at 50 µg/cm2 [3]: 50 to 100%

Structure (SMILES): CCc1ccccc1-c1ncsc1NC(=O)NCCc1ccc(-c2ncn(-c3ccc(OC(F)(F)F)cc3)n2)cc1 [F61, 1-(4-(2-ethylphenyl)thiazol-5-yl)-3-(4-(1-(4-(trifluoromethoxy)phenyl)-1H-1,2,4-triazol-3-yl)phenethyl)urea]
- mortality at 50 µg/cm2 [1]: 50 to 100%
- mortality at 50 µg/cm2 [3]: 0%
- YFM % Control (or Mortality) rating [4]: A (80-100)

Structure (SMILES): O=C(Nc1ccc(-c2ncn(-c3ccc(OC(F)(F)F)cc3)n2)cc1)Nc1ccnn1-c1ccccc1 [F10, 1-(1-Phenyl-1H-pyrazol-5-yl)-3-(4-(1-(4-(trifluoromethoxy)phenyl)-1H-1,2,4-triazol-3-yl)phenyl)urea]
- mortality at 50 µg/cm2 [1]: 50 to 100%
- mortality at 50 µg/cm2 [3]: 50 to 100%
- YFM % Control (or Mortality) rating [4]: D (No activity noticed in this bioassay)

Structure (SMILES): Cc1cccc(-n2ccnc2NC(=O)Nc2ccc(-c3ncn(-c4ccc(OC(F)(F)F)cc4)n3)cc2)c1 [F24, 1-(1-(m-Tolyl)-1H-imidazol-2-yl)-3-(4-(1-(4-(trifluoromethoxy)phenyl)-1H-1,2,4-triazol-3-yl)phenyl)urea]
- mortality at 50 µg/cm2 [1]: 50 to 100%
- mortality at 50 µg/cm2 [2]: 50 to 100%
- mortality at 50 µg/cm2 [3]: 50 to 100%

Structure (SMILES): Cc1cc(C)c(C2=C(NC(=O)NCCc3ccc(-c4ncn(-c5ccc(OC(F)(F)F)cc5)n4)cc3)OCC2=O)c(C)c1 [F53, 1-(3-mesityl-4-oxo-4,5-dihydrofuran-2-yl)-3-(4-(1-(4-(trifluoromethoxy)phenyl)-1H-1,2,4-triazol-3-yl)phenethyl)urea]
- mortality at 50 µg/cm2 [1]: 50 to 100%
- mortality at 50 µg/cm2 [3]: 0 to 50%
- YFM % Control (or Mortality) rating [4]: A (80-100)
